Test results as given in patent US10519147B2 (Merck Sharp & Dohme Corp., priority 2015, dated 2019).

Assays:
[1] = target: T1, human Nav1.7 (Homo sapiens, UniProt Q15858); test: IonWorks Quattro automated patch-clamp, inactivated state block of Nav1.7; assay type: cell-based; conditions: channels stably expressed in HEK 293 cells; double-pulse protocol, inactivated state block; read-out: potency for the Nav 1.7 sodium ion channel (IC50, as measured by IonWorks)
T1 construct: expressed in transfected cells; host or cells: HEK 293
T1 sequence (Q15858 whole entry): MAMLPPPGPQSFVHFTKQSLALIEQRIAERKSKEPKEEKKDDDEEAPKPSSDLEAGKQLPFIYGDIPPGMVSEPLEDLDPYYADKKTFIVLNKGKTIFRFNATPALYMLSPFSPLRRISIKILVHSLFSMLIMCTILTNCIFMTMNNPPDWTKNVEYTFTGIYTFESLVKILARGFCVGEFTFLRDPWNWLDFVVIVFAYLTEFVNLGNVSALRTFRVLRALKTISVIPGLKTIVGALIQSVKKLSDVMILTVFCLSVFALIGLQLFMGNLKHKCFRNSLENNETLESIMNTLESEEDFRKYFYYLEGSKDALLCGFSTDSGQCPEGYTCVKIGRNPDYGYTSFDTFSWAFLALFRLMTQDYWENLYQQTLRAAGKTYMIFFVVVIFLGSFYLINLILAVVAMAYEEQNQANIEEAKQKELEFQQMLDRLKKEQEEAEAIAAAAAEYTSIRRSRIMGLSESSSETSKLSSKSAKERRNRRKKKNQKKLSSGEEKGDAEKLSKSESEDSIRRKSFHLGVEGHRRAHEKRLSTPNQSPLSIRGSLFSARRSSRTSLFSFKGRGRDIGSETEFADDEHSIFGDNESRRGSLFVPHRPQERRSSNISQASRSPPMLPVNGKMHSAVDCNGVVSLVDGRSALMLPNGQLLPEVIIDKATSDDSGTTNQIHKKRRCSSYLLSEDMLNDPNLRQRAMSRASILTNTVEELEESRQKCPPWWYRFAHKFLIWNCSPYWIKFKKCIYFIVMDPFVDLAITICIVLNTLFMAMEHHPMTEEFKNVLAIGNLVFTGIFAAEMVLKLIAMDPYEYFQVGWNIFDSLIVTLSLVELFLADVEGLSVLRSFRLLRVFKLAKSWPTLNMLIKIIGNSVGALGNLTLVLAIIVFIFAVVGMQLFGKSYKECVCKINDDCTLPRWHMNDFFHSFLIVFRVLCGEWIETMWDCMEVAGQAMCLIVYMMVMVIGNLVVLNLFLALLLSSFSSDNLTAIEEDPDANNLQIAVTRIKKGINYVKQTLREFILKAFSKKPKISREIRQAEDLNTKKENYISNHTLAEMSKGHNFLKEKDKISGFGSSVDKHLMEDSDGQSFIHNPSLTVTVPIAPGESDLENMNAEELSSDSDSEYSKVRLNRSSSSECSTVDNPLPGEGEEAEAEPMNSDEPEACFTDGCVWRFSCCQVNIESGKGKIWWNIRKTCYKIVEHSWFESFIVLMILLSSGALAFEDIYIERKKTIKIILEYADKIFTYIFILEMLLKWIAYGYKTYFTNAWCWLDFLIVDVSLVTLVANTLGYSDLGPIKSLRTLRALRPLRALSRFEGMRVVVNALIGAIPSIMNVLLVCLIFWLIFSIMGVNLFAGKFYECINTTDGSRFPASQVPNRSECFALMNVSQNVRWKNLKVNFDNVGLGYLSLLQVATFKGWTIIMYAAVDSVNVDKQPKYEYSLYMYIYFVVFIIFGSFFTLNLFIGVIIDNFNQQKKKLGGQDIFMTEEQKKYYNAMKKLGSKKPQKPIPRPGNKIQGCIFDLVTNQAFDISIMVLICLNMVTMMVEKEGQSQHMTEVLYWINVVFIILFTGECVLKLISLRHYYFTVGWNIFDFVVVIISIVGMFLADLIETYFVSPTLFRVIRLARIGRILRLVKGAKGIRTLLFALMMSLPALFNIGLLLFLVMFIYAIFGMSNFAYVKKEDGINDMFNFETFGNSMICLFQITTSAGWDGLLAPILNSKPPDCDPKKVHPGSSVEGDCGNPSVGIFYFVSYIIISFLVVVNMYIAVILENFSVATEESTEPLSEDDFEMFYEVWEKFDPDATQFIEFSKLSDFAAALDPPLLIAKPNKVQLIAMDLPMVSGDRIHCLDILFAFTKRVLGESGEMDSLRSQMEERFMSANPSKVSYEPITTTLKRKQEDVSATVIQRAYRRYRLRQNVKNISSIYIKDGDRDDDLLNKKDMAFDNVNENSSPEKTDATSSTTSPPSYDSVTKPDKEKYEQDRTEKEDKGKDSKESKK
How it was run: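 HEK293 stable lines, IonWorks PPC patch clamp (nystatin/amphotericin access); double-pulse protocol giving ~50% inactivation: holding −100 mV (Nav1.7) or −110 mV (Nav1.5), 1000 ms prepulse to −10 or −30 mV, 10 ms repolarization, 10 ms test pulse. Peak current inhibition versus concentration fitted to Hill equation for IC50.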

[2] = target: T2, human Nav1.5 (Homo sapiens, UniProt Q14524); test: IonWorks Quattro automated patch-clamp, Nav1.5 (selectivity against Nav1.7); assay type: cell-based; conditions: IonWorks measurement, HEK 293 cells, inactivated state block
T2 construct: expressed in transfected cells; host or cells: HEK 293
T2 sequence (Q14524 whole entry): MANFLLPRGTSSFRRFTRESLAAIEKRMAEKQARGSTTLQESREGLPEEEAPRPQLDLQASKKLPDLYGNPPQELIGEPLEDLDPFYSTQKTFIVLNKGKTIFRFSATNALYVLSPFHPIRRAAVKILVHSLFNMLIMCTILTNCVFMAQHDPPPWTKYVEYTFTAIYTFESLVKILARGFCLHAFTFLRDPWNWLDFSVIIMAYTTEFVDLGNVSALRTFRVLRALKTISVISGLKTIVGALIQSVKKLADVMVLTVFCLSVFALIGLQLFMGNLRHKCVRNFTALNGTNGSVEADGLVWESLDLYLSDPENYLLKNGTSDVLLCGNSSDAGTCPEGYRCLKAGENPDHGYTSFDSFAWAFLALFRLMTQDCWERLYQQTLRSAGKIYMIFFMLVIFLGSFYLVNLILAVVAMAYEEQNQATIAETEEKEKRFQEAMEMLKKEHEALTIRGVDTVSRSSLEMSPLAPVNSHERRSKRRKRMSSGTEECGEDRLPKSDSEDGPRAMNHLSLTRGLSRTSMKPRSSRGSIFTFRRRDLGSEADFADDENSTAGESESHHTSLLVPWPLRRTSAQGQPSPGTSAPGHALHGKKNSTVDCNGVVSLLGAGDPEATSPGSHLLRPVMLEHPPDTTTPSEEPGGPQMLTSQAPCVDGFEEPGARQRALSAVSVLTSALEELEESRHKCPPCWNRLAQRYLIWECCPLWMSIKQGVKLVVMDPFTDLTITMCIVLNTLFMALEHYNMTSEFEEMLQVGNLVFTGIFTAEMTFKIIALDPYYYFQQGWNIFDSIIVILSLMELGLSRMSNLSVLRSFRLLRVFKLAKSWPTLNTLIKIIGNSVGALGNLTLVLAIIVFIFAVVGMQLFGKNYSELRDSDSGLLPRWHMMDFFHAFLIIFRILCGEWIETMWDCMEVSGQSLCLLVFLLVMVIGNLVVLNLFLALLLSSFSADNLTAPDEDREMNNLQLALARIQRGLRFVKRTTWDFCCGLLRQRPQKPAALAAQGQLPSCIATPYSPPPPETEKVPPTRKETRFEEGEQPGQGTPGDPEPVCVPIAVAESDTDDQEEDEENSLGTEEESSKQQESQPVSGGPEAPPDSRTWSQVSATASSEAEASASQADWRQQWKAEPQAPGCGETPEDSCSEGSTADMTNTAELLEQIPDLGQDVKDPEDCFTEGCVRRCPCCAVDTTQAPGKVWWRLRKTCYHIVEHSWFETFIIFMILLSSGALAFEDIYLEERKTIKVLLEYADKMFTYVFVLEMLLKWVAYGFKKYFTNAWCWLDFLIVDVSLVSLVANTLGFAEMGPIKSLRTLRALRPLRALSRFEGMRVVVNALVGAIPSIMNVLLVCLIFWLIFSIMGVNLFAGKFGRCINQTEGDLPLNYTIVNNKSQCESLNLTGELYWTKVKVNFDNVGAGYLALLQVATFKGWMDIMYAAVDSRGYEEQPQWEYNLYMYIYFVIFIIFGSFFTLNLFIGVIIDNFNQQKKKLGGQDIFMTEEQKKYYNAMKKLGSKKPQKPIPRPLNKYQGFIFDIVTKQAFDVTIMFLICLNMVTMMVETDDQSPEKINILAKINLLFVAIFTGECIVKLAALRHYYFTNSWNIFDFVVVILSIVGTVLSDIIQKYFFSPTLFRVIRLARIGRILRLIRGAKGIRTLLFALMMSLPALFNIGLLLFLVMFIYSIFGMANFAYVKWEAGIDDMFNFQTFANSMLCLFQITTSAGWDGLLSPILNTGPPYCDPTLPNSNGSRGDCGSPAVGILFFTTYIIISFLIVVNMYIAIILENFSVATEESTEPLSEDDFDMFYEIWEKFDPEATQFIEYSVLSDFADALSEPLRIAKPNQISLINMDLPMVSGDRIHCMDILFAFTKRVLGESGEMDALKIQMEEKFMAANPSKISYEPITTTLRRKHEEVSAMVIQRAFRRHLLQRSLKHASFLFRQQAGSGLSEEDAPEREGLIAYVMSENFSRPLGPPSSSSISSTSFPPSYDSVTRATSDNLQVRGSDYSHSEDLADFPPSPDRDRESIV
Method: Compounds were tested on human Nav1.7 and Nav1.5 channels stably expressed in HEK 293 cells. […] Cells were sealed on a planar substrate using the Population Patch […] (PPC) technology. Electrical access was obtained using both nystatin and amphotericin. A double-pulse protocol was used for the determination of IC50 values for inactivated state block. Nav1.7 and Nav1.5 expressing cells were voltage clamped at −100 mV and −110 mV, respectively. A depolarizing prepulse to −10 mV (Nav1.7) or −30 mV (Nav1.5) for 1000 ms followed by a 10 ms repolarization to −100 mV (Nav1.7) or −110 mV (Nav1.5) was given to generate fractional channel inactivation of 50%, followed by a 10 ms test pulse to −10 mV (Nav1.7) or −30 mV (Nav1.5) to measure peak current in control conditions and after compound addition. The following recording solutions were used (mM). External: 150 NaCl, 2 CaCl2, 5 KCl, 1 Mg Cl2, 10 HEPES, 12 Dextrose; internal: 120 CsF, 30 CsCl, 10 EGTA, 5 HEPES, 5 NaF, 2 MgCl2.
For all electrophysiology experiments, offline analysis was used to determine percent inhibition as a function of drug concentration. IC50 values were determined by fitting to the Hill equation.

Row | IC50 [1] | Structure (SMILES) | ratio of Nav 1.7 potency:Nav 1.5 potency [2]
1 | 41 nM | O=S(=O)(Nc1nccs1)c1cc(Cl)c(NCCCCNC[C@H]2CCN2)cc1F [Ex 16-75, 4-[(4-{[(2R)-azetidin-2-ylmethyl]amino}butyl)amino]-5-chloro-2-fluoro-N-1,3-thiazol-2-ylbenzenesulfonamide] | > 805
2 | 17 nM | O=S(=O)(Nc1ncns1)c1cc(Br)c(NCCCCNC[C@@H]2CCN2)cc1F [Ex 16-76, 4-[(4-{[(2S)-azetidin-2-ylmethyl]amino}butyl)amino]-5-bromo-2-fluoro-N-1,2,4-thiadiazol-5-ylbenzenesulfonamide] | > 1940
3 | 24 nM | O=S(=O)(Nc1ncns1)c1cc(Br)c(NCCCCNC[C@H]2CCN2)cc1F [Ex 16-77, 4-[(4-{[(2R)-azetidin-2-ylmethyl]amino}butyl)amino]-5-bromo-2-fluoro-N-1,2,4-thiadiazol-5-ylbenzenesulfonamide] | > 1380
4 | 5.4 nM | C[C@H](CCN)NCCCCNc1cc(F)c(S(=O)(=O)Nc2ncns2)cc1Br [Ex 16-79, 4-[4-[[(1R)-3-amino-1-methyl-propyl]amino]butylamino]-5-bromo-2-fluoro-N-(1,2,4-thiadiazol-5-yl)benzenesulfonamide] | 4260
5 | 3.1 nM | C[C@H](N)CNCCCCNc1cc(F)c(S(=O)(=O)Nc2ncns2)cc1Br [Ex 16-80, 4-[4-[[(2S)-2-aminopropyl]amino]butylamino]-5-bromo-2-fluoro-N-(1,2,4-thiadiazol-5-yl)benzenesulfonamide] | > 10600
6 | 4.9 nM | NC1CCC1NCCCCNc1cc(F)c(S(=O)(=O)Nc2ncns2)cc1Cl (centres unmarked) [Ex 16-81, 4-[4-[(2-aminocyclobutyl)amino]butylamino]-5-chloro-2-fluoro-N-(1,2,4-thiadiazol-5-yl) benzenesulfonamide] | > 6700
7 | 6.1 nM | CC(C)C[C@@H](CNCCCCNc1cc(F)c(S(=O)(=O)Nc2ncc(F)s2)cc1Cl)[C@@H](C)N [Ex 16-84, 4-((4-(((S)-2-((R)-1-aminoethyl)-4-methylpentyl)-amino)butyl)amino)-5-chloro-2-fluoro-N-(5-fluorothiazol-2-yl)benzenesulfonamide] | > 5400
8 | 4.5 nM | CC(C)C[C@@H](CNCCCCNc1cc(F)c(S(=O)(=O)Nc2ncns2)cc1Cl)[C@@H](C)N [Ex 16-85, 4-((4-(((S)-2-((R)-1-aminoethyl)-4-methylpentyl)-amino)butyl)amino)-5-chloro-2-fluoro-N-(1,2,4-thiadiazol-5-yl) benzenesulfonamide] | > 7330
9 | 39 nM | N[C@@H]1CCC[C@H]1NCCCCNc1cc(F)c(S(=O)(=O)Nc2ncns2)cc1F [Ex 16-86, 4-[4-[[(1R,2R)-2-aminocyclopentyl]amino]butylamino]-2,5-difluoro-N-(1,2,4-thiadiazol-5-yl)benzenesulfonamide] | > 850
10 | 9.6 nM | NCCNCCCCNc1cc(F)c(S(=O)(=O)Nc2ncns2)cc1Br [Ex 16-88, 4-[4-(2-aminoethylamino)butylamino]-5-bromo-2-fluoro-N-(1,2,4-thiadiazol-5-yl)benzenesulfonamide] | > 3400
11 | 3.4 nM | CCNCCNCCCCNc1cc(F)c(S(=O)(=O)Nc2ncns2)cc1Br [Ex 16-92, 5-bromo-4-[4-[2-(ethylamino)ethylamino]butylamino]-2-fluoro-N-(1,2,4-thiadiazol-5-yl)benzenesulfonamide] | > 9700
12 | 41 nM | N[C@@H]1CCC[C@@H]1NCCCCNc1cc(F)c(S(=O)(=O)Nc2ncns2)cc1Br [Ex 16-93, 4-[4-[[(1S,2R)-2-aminocyclopentyl]amino]butylamino]-5-bromo-2-fluoro-N-(1,2,4-thiadiazol-5-yl)benzenesulfonamide] | > 800
13 | 7.3 nM | N[C@@H]1CCC[C@H]1NCCCCNc1cc(F)c(S(=O)(=O)Nc2ncns2)cc1Br [Ex 16-94, 4-[4-[[(1R,2R)-2-aminocyclopentyl]amino]butylamino]-5-bromo-2-fluoro-N-(1,2,4-thiadiazol-5-yl)benzenesulfonamide] | 3150
14 | 35 nM | N[C@H]1CC[C@H](NCCCCNc2cc(F)c(S(=O)(=O)Nc3ncns3)cc2Br)C1 [Ex 16-95, 4-[4-[[(1S,3S)-3-aminocyclopentyl]amino]butylamino]-5-bromo-2-fluoro-N-(1,2,4-thiadiazol-5-yl)benzenesulfonamide] | > 940
15 | 8.6 nM | NCC1(NCCCCNc2cc(F)c(S(=O)(=O)Nc3ncns3)cc2Br)CC1 [Ex 16-98, 4-[4-[[1-(aminomethyl)cyclopropyl]amino]butylamino]-5-bromo-2-fluoro-N-(1,2,4-thiadiazol-5-yl) benzenesulfonamide] | > 3840
16 | 5.9 nM | C[C@@H](N)CNCCCCNc1cc(F)c(S(=O)(=O)Nc2ncns2)cc1Br [Ex 16-99, 4-[4-[[(2R)-2-aminopropyl]amino]butylamino]-5-bromo-2-fluoro-N-(1,2,4-thiadiazol-5-yl)benzenesulfonamide] | 3900
